Measurements reported in ChEMBL document CHEMBL1275577, “Study of the in vitro activities of rifaximin and comparator agents against 536 anaerobic intestinal bacteria from the perspective of potential utility in pathology involving bowel flora” (Antimicrob Agents Chemother, 2009).
≈ marks a conversion by molar mass, not a printed value.

What was measured:
[1] = test system: Parabacteroides distasonis; assay: Antimicrobial activity against Parabacteroides distasonis by Wadsworth agar dilution method; assay type: functional
[2] = test system: Bacteroides stercoris; assay: Antimicrobial activity against Bacteroides stercoris by Wadsworth agar dilution method; assay type: functional
[3] = test system: Bilophila wadsworthia; assay: Antimicrobial activity against Bilophila wadsworthia by Wadsworth agar dilution method in presence of 1% pyruvic acid; assay type: functional
[4] = test system: Desulfovibrio piger; assay: Antimicrobial activity against Desulfovibrio piger by Wadsworth agar dilution method; assay type: functional
[5] = test system: Fusobacterium mortiferum; assay: Antimicrobial activity against Fusobacterium mortiferum by Wadsworth agar dilution method in presence of beta-lactamase inhibitor Sulbactam; assay type: functional
[6] = test system: Prevotella disiens; assay: Antimicrobial activity against Prevotella disiens by Wadsworth agar dilution method; assay type: functional
[7] = test system: Hoylesella loescheii; assay: Antimicrobial activity against Prevotella loescheii by Wadsworth agar dilution method; assay type: functional
[8] = test system: Prevotella melaninogenica; assay: Antimicrobial activity against Prevotella melaninogenica by Wadsworth agar dilution method; assay type: functional
[9] = test system: Clostridioides difficile; assay: Antimicrobial activity against Clostridium difficile by Wadsworth agar dilution method; assay type: functional
[10] = test system: [Clostridium] innocuum; assay: Antimicrobial activity against Clostridium innocuum by Wadsworth agar dilution method; assay type: functional
[11] = test system: Flavonifractor plautii; assay: Antimicrobial activity against Clostridium orbiscindens by Wadsworth agar dilution method; assay type: functional
[12] = test system: Clostridium perfringens; assay: Antimicrobial activity against Clostridium perfringens by Wadsworth agar dilution method; assay type: functional
[13] = test system: Clostridium beijerinckii; assay: Antimicrobial activity against Clostridium beijerinckii by Wadsworth agar dilution method; assay type: functional
[14] = test system: Clostridium cocleatum; assay: Antimicrobial activity against Clostridium cocleatum by Wadsworth agar dilution method; assay type: functional; settings: Thomasclavelia cocleata
[15] = test system: Clostridium lactatifermentans; assay: Antimicrobial activity against Clostridium lactatifermentans by Wadsworth agar dilution method; assay type: functional; settings: Anaerotignum lactatifermentans
[16] = test system: Clostridium leptum; assay: Antimicrobial activity against Clostridium leptum by Wadsworth agar dilution method; assay type: functional
[17] = test system: Clostridium nexile; assay: Antimicrobial activity against Clostridium nexile by Wadsworth agar dilution method; assay type: functional; settings: Faecalimonas nexilis
[18] = test system: Thomasclavelia ramosa; assay: Antimicrobial activity against Clostridium ramosum by Wadsworth agar dilution method; assay type: functional
[19] = test system: Paeniclostridium sordellii; assay: Antimicrobial activity against Clostridium sordellii by Wadsworth agar dilution method; assay type: functional; settings: Paraclostridium sordellii
[20] = test system: Clostridium symbiosum; assay: Antimicrobial activity against Clostridium symbiosum by Wadsworth agar dilution method; assay type: functional
[21] = test system: Clostridium tertium; assay: Antimicrobial activity against Clostridium tertium by Wadsworth agar dilution method; assay type: functional
[22] = test system: Schaalia meyeri; assay: Antimicrobial activity against Actinomyces meyeri by Wadsworth agar dilution method; assay type: functional
[23] = test system: Schaalia odontolytica; assay: Antimicrobial activity against Actinomyces odontolyticus by Wadsworth agar dilution method; assay type: functional
[24] = test system: Actinomyces viscosus; assay: Antimicrobial activity against Actinomyces viscosus by Wadsworth agar dilution method; assay type: functional
[25] = Antimicrobial activity against Bifidobacterium infantis by Wadsworth agar dilution method; assay type: functional, Bifidobacterium longum subsp. infantis; settings: Bifidobacterium longum
[26] = test system: Bifidobacterium pseudolongum; assay: Antimicrobial activity against Bifidobacterium pseudolongum by Wadsworth agar dilution method; assay type: functional
[27] = test system: Catenibacterium mitsuokai; assay: Antimicrobial activity against Catenibacterium mitsuokai by Wadsworth agar dilution method; assay type: functional
[28] = test system: Coprobacillus cateniformis; assay: Antimicrobial activity against Coprobacillus cateniformis by Wadsworth agar dilution method; assay type: functional
[29] = test system: Eggerthella lenta; assay: Antimicrobial activity against Eggerthella lenta by Wadsworth agar dilution method; assay type: functional
[30] = test system: Eubacterium biforme; assay: Antimicrobial activity against Eubacterium biforme by Wadsworth agar dilution method; assay type: functional; settings: Holdemanella biformis
[31] = test system: Eubacterium callanderi; assay: Antimicrobial activity against Eubacterium callanderi by Wadsworth agar dilution method; assay type: functional
[32] = test system: Eubacterium rectale; assay: Antimicrobial activity against Eubacterium rectale by Wadsworth agar dilution method; assay type: functional; settings: Agathobacter rectalis
[33] = test system: Lactobacillus acidophilus; assay: Antimicrobial activity against Lactobacillus acidophilus by Wadsworth agar dilution method; assay type: functional
[34] = test system: Limosilactobacillus fermentum; assay: Antimicrobial activity against Lactobacillus fermentum by Wadsworth agar dilution method; assay type: functional
[35] = test system: Limosilactobacillus reuteri; assay: Antimicrobial activity against Lactobacillus reuteri by Wadsworth agar dilution method; assay type: functional
[36] = test system: Lacticaseibacillus rhamnosus; assay: Antimicrobial activity against Lactobacillus rhamnosus by Wadsworth agar dilution method; assay type: functional
[37] = test system: Lactobacillus sp.; assay: Antimicrobial activity against Lactobacillus sp. by Wadsworth agar dilution method; assay type: functional
[38] = test system: Cutibacterium acnes; assay: Antimicrobial activity against Propionibacterium acnes by Wadsworth agar dilution method; assay type: functional
[39] = test system: Propionibacterium propionicum; assay: Antimicrobial activity against Propionibacterium propionicum by Wadsworth agar dilution method; assay type: functional; settings: Arachnia propionica
[40] = test system: Anaerococcus prevotii; assay: Antimicrobial activity against Anaerococcus prevotii by Wadsworth agar dilution method; assay type: functional
[41] = test system: Anaerococcus tetradius; assay: Antimicrobial activity against Anaerococcus tetradius by Wadsworth agar dilution method; assay type: functional
[42] = test system: Peptoniphilus harei; assay: Antimicrobial activity against Peptoniphilus harei by Wadsworth agar dilution method; assay type: functional
[43] = test system: Parvimonas micra; assay: Antimicrobial activity against Peptostreptococcus micros by Wadsworth agar dilution method; assay type: functional
[44] = test system: Ruminococcus flavefaciens; assay: Antimicrobial activity against Ruminococcus flavefaciens by Wadsworth agar dilution method; assay type: functional
[45] = test system: Ruminococcus lactaris; assay: Antimicrobial activity against Ruminococcus lactaris by Wadsworth agar dilution method; assay type: functional
[46] = test system: Ruminococcus obeum; assay: Antimicrobial activity against Ruminococcus obeum by Wadsworth agar dilution method; assay type: functional; settings: Blautia obeum
[47] = test system: Ruminococcus torques; assay: Antimicrobial activity against Ruminococcus torques by Wadsworth agar dilution method; assay type: functional; settings: Mediterraneibacter torques

## NC[C@@H]1O[C@H](O[C@H]2[C@@H](O)[C@H](O[C@@H]3[C@@H](O)[C@H](N)C[C@H](N)[C@H]3O[C@H]3O[C@H](CN)[C@@H](O)[C@H](O)[C@H]3N)O[C@@H]2CO)[C@H](N)[C@@H](O)[C@@H]1O [FRAMYCETIN]
[1]
  MIC50: 1020 µg/mL (≈ 1670 µM)
  MIC90: > 1020 µg/mL
[2]
  MIC50: > 1020 µg/mL
  MIC90: > 1020 µg/mL
[3]
  MIC50: > 1020 µg/mL
  MIC90: > 1020 µg/mL
[4]
  MIC50: 256 µg/mL (≈ 416 µM)
  MIC90: 1020 µg/mL (≈ 1670 µM)
[5]
  MIC50: 512 µg/mL
  MIC90: > 1020 µg/mL
[6]
  MIC50: 512 µg/mL (≈ 833 µM)
  MIC90: 1020 µg/mL (≈ 1670 µM)
[7]
  MIC50: 512 µg/mL (≈ 833 µM)
  MIC90: 1020 µg/mL (≈ 1670 µM)
[8]
  MIC50: 512 µg/mL (≈ 833 µM)
  MIC90: 1020 µg/mL (≈ 1670 µM)
[9]
  MIC50: 256 µg/mL (≈ 416 µM)
  MIC90: 512 µg/mL (≈ 833 µM)
[10]
  MIC50: > 1020 µg/mL
  MIC90: > 1020 µg/mL
[11]
  MIC50: 256 µg/mL (≈ 416 µM)
  MIC90: 512 µg/mL (≈ 833 µM)
[12]
  MIC50: 1020 µg/mL (≈ 1670 µM)
  MIC90: > 1020 µg/mL
[13]
  MIC50: 256 µg/mL (≈ 416 µM)
  MIC90: 1020 µg/mL (≈ 1670 µM)
[14]
  MIC50: 256 µg/mL (≈ 416 µM)
  MIC90: 1020 µg/mL (≈ 1670 µM)
[15]
  MIC50: 256 µg/mL (≈ 416 µM)
  MIC90: 1020 µg/mL (≈ 1670 µM)
[16]
  MIC50: 256 µg/mL (≈ 416 µM)
  MIC90: 1020 µg/mL (≈ 1670 µM)
[17]
  MIC50: 256 µg/mL (≈ 416 µM)
  MIC90: 1020 µg/mL (≈ 1670 µM)
[18]
  MIC50: 256 µg/mL (≈ 416 µM)
  MIC90: 1020 µg/mL (≈ 1670 µM)
[19]
  MIC50: 256 µg/mL (≈ 416 µM)
  MIC90: 1020 µg/mL (≈ 1670 µM)
[20]
  MIC50: 256 µg/mL (≈ 416 µM)
  MIC90: 1020 µg/mL (≈ 1670 µM)
[21]
  MIC50: 256 µg/mL (≈ 416 µM)
  MIC90: 1020 µg/mL (≈ 1670 µM)
[22]
  MIC50: 128 µg/mL (≈ 208 µM)
  MIC90: 1020 µg/mL (≈ 1670 µM)
[23]
  MIC50: 128 µg/mL (≈ 208 µM)
  MIC90: 1020 µg/mL (≈ 1670 µM)
[24]
  MIC50: 128 µg/mL (≈ 208 µM)
  MIC90: 1020 µg/mL (≈ 1670 µM)
[25]
  MIC50: 128 µg/mL (≈ 208 µM)
  MIC90: 1020 µg/mL (≈ 1670 µM)
[26]
  MIC50: 128 µg/mL (≈ 208 µM)
  MIC90: 1020 µg/mL (≈ 1670 µM)
[27]
  MIC50: 128 µg/mL (≈ 208 µM)
  MIC90: 1020 µg/mL (≈ 1670 µM)
[28]
  MIC50: 128 µg/mL (≈ 208 µM)
  MIC90: 1020 µg/mL (≈ 1670 µM)
[29]
  MIC50: 128 µg/mL (≈ 208 µM)
  MIC90: 1020 µg/mL (≈ 1670 µM)
[30]
  MIC50: 128 µg/mL (≈ 208 µM)
  MIC90: 1020 µg/mL (≈ 1670 µM)
[31]
  MIC50: 128 µg/mL (≈ 208 µM)
  MIC90: 1020 µg/mL (≈ 1670 µM)
[32]
  MIC50: 128 µg/mL (≈ 208 µM)
  MIC90: 1020 µg/mL (≈ 1670 µM)
[33]
  MIC50: 128 µg/mL (≈ 208 µM)
  MIC90: 1020 µg/mL (≈ 1670 µM)
[34]
  MIC50: 128 µg/mL (≈ 208 µM)
  MIC90: 1020 µg/mL (≈ 1670 µM)
[35]
  MIC50: 128 µg/mL (≈ 208 µM)
  MIC90: 1020 µg/mL (≈ 1670 µM)
[36]
  MIC50: 128 µg/mL (≈ 208 µM)
  MIC90: 1020 µg/mL (≈ 1670 µM)
[37]
  MIC50: 128 µg/mL (≈ 208 µM)
  MIC90: 1020 µg/mL (≈ 1670 µM)
[38]
  MIC50: 128 µg/mL (≈ 208 µM)
  MIC90: 1020 µg/mL (≈ 1670 µM)
[39]
  MIC50: 128 µg/mL (≈ 208 µM)
  MIC90: 1020 µg/mL (≈ 1670 µM)
[40]
  MIC50: 128 µg/mL (≈ 208 µM)
  MIC90: 512 µg/mL (≈ 833 µM)
[41]
  MIC50: 128 µg/mL (≈ 208 µM)
  MIC90: 512 µg/mL (≈ 833 µM)
[42]
  MIC50: 128 µg/mL (≈ 208 µM)
  MIC90: 512 µg/mL (≈ 833 µM)
[43]
  MIC50: 128 µg/mL (≈ 208 µM)
  MIC90: 512 µg/mL (≈ 833 µM)
[44]
  MIC50: 128 µg/mL (≈ 208 µM)
  MIC90: 512 µg/mL (≈ 833 µM)
[45]
  MIC50: 128 µg/mL (≈ 208 µM)
  MIC90: 512 µg/mL (≈ 833 µM)
[46]
  MIC50: 128 µg/mL (≈ 208 µM)
  MIC90: 512 µg/mL (≈ 833 µM)
[47]
  MIC50: 128 µg/mL (≈ 208 µM)
  MIC90: 512 µg/mL (≈ 833 µM)
